Source: patent US20040033517A1, “Compositions and methods relating to endothelial cell signaling using the protease activated receptor (PAR1)” (priority 2002, published 2004)
Where two headings read alike, the source gives them in different places. Ends that are not written are not given here.

Legend:
[1] = system: human umbilical vein endothelial cells HUVEC-C; assay type: cell-based
Description: Microarray Analysis. […] Total RNA was isolated followed by reverse transcription. Purified double stranded cDNA was in vitro transcribed in the presence of biotinylated dUTP and dCTP, fragmented cRNA was hybridized to the HG-U95Av2 array (Affymetrix, Santa Clara, Calif.), followed by staining with streptavidin-phycoerythrin. Arrays were scanned and analyzed using GeneChip3.1 software. […] An average fold-induction for the three independent experiments was obtained by calculating the means of the logarithm of the individual fold-increases for each agonist.

primary HUVEC = assay: TaqMan real-time RT-PCR of gene induction in primary HUVEC; assay type: cell-based, human; details: primary endothelial cells, quantitative PCR, FIG. 3A
Experimental: TaqMan Real Time PCR. For TaqMan (Applied Biosystems) real-time RT-PCR 4 μg total cellular RNA from stimulated primary HUVEC was reverse transcribed followed by RNAse treatment using the Superscript Kit (Invitrogen). TaqMan probes were custom designed for genes of interests. All samples were normalized with human GAPDH probes and primers obtained from Applied Biosystems.

[2] = HUVEC-C, 90 min, genes represented in FIG. 2 A-C
[3] = HUVEC-C, 90 min, higher variability, PAR1 enhanced (<1.3 fold with PAR2 agonist)
[4] = HUVEC-C, 90 min, higher variability, PAR2 enhanced (<1.3 fold with PAR1 agonist)
[5] = HUVEC-C, 90 min, higher variability, genes not induced by APC (<1.3 fold with APC)

Sequence: TFLLRNPNDK [PAR1]
- Average fold induction, AKAP12 U81607 A-KINASE ANCHOR PROTEIN 12, GRAVIN [1]: 1.39 fold
- Average fold induction, BCL2A1 U27467 BCL2 RELATED PROTEIN A1, BFL-1 [1]: 2.04 fold
- Average fold induction, BIRC3 U45878 HUMAN INHIBITOR OF APOPTOSIS PROTEIN (IAP) 1 [1]: 2.39 fold
- Average fold induction, DUSP1 X68277 DUAL-SPECIFICITY PHOSPHATASE 1 [1]: 2.05 fold
- Average fold induction, DUSP5 U15932 DUAL-SPECIFICITY PHOSPHATASE 5 [1]: 2.93 fold
- Average fold induction, GADD45B AF078077 GROWTH ARREST- AND DNA DAMAGE-INDUCIBLE GENE GADD45, BETA [1]: 1.26 fold
- Average fold induction, IER3 S81914 IMMEDIATE-EARLY RESPONSE 3 [1]: 1.30 fold
- Average fold induction, NAB1 AF045451 NGFIA-BINDING PROTEIN [1]: 1.49 fold
- Average fold induction, NFKBIA M69043 NUCLEAR FACTOR OF KAPPA LIGHT CHAIN GENE ENHANCER IN B CELLS INHIBITOR, ALPHA [1]: 1.38 fold
- Average fold induction, TNFAIP3 M59465 TUMOR NECROSIS FACTOR-ALPHA-INDUCED PROTEIN 3, A20 [1]: 1.39 fold
- Average fold induction, ZFP36 M92843 ZINC FINGER PROTEIN 36, TRISTETRAPROLIN (TTP) [1]: 1.98 fold
- Average Induction, A1288757 qm11h01.x1 Homo sapiens cDNA [1, 2]: 1.8 fold
- Average Induction, A1670788 tz10c02.x1 Homo sapiens cDNA [1, 2]: 1.5 fold
- Average Induction, A1985272 ws06b05.x1 Homo sapiens cDNA [1, 2]: 1.3 fold
- Average Induction, A8022718 Homo sapiens m.RNA for DEPP (decidual protein induced by progesterone) [1, 2]: 1.3 fold
- Average Induction, AB004066 Homo sapiens mRNA for DEC1 [1, 2]: 1.5 fold
- Average Induction, AB014569 Homo sapiens mRNA for K1AA0669 protein [1, 2]: 1.3 fold
- Average Induction, AF017786 Homo sapiens phosphatidic acid phosphohydrolase homolog (Dri42) [1, 2]: 1.6 fold
- Average Induction, AF022375 Homo sapiens vascular endothelial growth factor mRNA [1, 2]: 1.5 fold
- Average Induction, AF039843 Homo sapiens Sprouty 2 (SPRY2) mRNA [1, 2]: 1.6 fold
- Average Induction, AF045451 Homo sapiens transcriptional regulatory protein p54 [1, 2]: 1.5 fold
- Average Induction, AF050110 Homo sapiens TGFb inducible early protein and early growth response protein alpha genes [1, 2]: 1.7 fold
- Average Induction, AF054182 Homo sapiens mitochondrial processing peptidase beta-subunit mRNA [1, 2]: 1.8 fold
- Average Induction, AF068197 Homo sapiens BCE-1 mRNA [1, 2]: 1.5 fold
- Average Induction, AF078077 Homo sapiens growth arrest and DNA-damage-inducible protein GADD45beta [1, 2]: 1.3 fold
- Average Induction, AJ005821 Homo sapiens mRNA for X-like 1 protein [1, 2]: 2.4 fold
- Average Induction, AL023584 Human DNA sequence from clone 67K17 on chromosome 6q24.1-24.3. [1, 2]: 1.8 fold
- Average Induction, AL031432 Human DNA sequence from clone 465N24 on chromosome 1p35.1-36.13. [1, 2]: 1.9 fold
- Average Induction, AL050078 Homo sapiens mRNA; cDNA DKFZp566G0746 [1, 2]: 1.6 fold
- Average Induction, AL096858 Novel human gene mapping to chomosome 1 [1, 2]: 1.3 fold
- Average Induction, Cluster Incl M22489 Human bone morphogenetic protein 2A (BMP-2A) [1, 2]: 2.4 fold
- Average Induction, Cluster Incl U12767 Human mitogen induced nuclear orphan receptor (MINOR) [1, 2]: 2.4 fold
- Average Induction, D15050 Human mRNA for transcription factor AREB6 [1, 2]: 2.1 fold
- Average Induction, D50917 Human mRNA for KIAA0127 gene [1, 2]: 1.4 fold
- Average Induction, D78579 Homo sapiens mRNA for neuron derived orphan receptor [1, 2]: 2.6 fold
- Average Induction, D86181 Homo sapiens DNA for galactocerebrosidase [1, 2]: 1.9 fold
- Average Induction, Guanine Nucleotide Exchange Factor 2 [1, 2]: 1.4 fold
- Average Induction, J02931 Human placental tissue factor (two forms) mRNA [1, 2]: 3.0 fold
- Average Induction, J04076 Human early growth response 2 protein (EGR2) mRNA [1, 2]: 2.0 fold
- Average Induction, J04111 Human c-jun proto oncogene (JUN) [1, 2]: 1.7 fold
- Average Induction, L05072 Homo sapiens interferon regulatory factor 1 gene [1, 2]: 1.9 fold
- Average Induction, L19871 Human activating transcription factor 3 (ATF3) [1, 2]: 2.5 fold
- Average Induction, L43821 Homo sapiens enhancer of filamentation (HEF1) mRNA [1, 2]: 1.4 fold
- Average Induction, M22489/FEATURE Human bone morphogenetic protein 2A (BMP-2A) [1, 2]: 2.3 fold
- Average Induction, M26683 Human interferon gamma treatment inducible mRNA [1, 2]: 1.6 fold
- Average Induction, M28211 Homo sapiens GTP-binding protein (RAB4) mRNA [1, 2]: 2.0 fold
- Average Induction, M28225 Human JE gene encoding a monocyte secretory protein [= MCP-1] [1, 2]: 2.1 fold
- Average Induction, M29039 Human transactivator (jun-B) gene [1, 2]: 2.8 fold
- Average Induction, M30474 Human kidney gamma-glutamyl transpeptidase type II mRNA [1, 2]: 2.7 fold
- Average Induction, M31516 Human decay-accelerating factor mRNA [1, 2]: 1.7 fold
- Average Induction, M36820 Human cytokine (GRO-beta) mRNA [1, 2]: 2.1 fold
- Average Induction, M59465 Human tumor necrosis factor alpha inducible protein A20 mRNA [1, 2]: 1.4 fold
- Average Induction, M60278 Human heparin-binding EGF-like growth factor mRNA [1, 2]: 3.6 fold
- Average Induction, M60721 Human homeobox gene [1, 2]: 2.8 fold
- Average Induction, M69043 Homo sapiens MAD-3 mRNA encoding 1kB-like activity [1, 2]: 1.4 fold
- Average Induction, M92843 H.sapiens zinc finger transcriptional regulator mRNA [1, 2]: 2.0 fold
- Average Induction, S81439 EGR alpha=early growth response gene alpha [1, 2]: 1.8 fold
- Average Induction, S81914 IEX-1=radiation-inducible immediate-early gene [1, 2]: 1.3 fold
- Average Induction, U04636 Human cyclooxygenase-2 (hCox-2) gene [1, 2]: 1.3 fold
- Average Induction, U07802 Human Tis1 1d gene [1, 2]: 1.5 fold
- Average Induction, U08015 Human NF-ATc mRNA [1, 2]: 1.4 fold
- Average Induction, U12767/FEATURE Human mitogen induced nuclear orphan receptor (MINOR) [1, 2]: 4.9 fold
- Average Induction, U15932 Human dual-specificity protein phosphatase [1, 2]: 2.9 fold
- Average Induction, U25997 Homo sapiens stanniocalcin precursor (STC) mRNA [1, 2]: 1.6 fold
- Average Induction, U43142 Human vascular endothelial growth factor related protein VRP [1, 2]: 1.4 fold
- Average Induction, U59863 Human TRAF-interacting protein I-TRAF mRNA [1, 2]: 1.3 fold
- Average Induction, U75697 Human transcription regulator RPD3-2B mRNA [1, 2]: 2.7 fold
- Average Induction, U79259 Human clone 23945 mRNA [1, 2]: 1.5 fold
- Average Induction, U81607 Homo sapiens gravin mRNA [1, 2]: 1.4 fold
- Average Induction, W27545 32c4 Homo sapiens cDNA [1, 2]: 1.2 fold
- Average Induction, X51345 Human jun-B mRNA for JUN-B protein [1, 2]: 1.8 fold
- Average Induction, X63741 H.sapiens pilot mRNA [1, 2]: 1.9 fold
- Average Induction, X68277 H.sapiens CL 100 mRNA for protein tyrosine phosphatase [1, 2]: 2.1 fold
- Average Induction, X75918 H.sapiens mRNA for NOT [1, 2]: 2.3 fold
- Average Induction, X89066 H.sapiens mRNA for TRPC1 protein [1, 2]: 2.6 fold
- Average Induction, X94216 H.sapiens mRNA for VEGF-C protein [1, 2]: 1.4 fold
- Average Induction, Y00630 Human mRNA for Arg-Serpin (plasminogen activator-inhibitor 2, PAI-2) [1, 2]: 2.2 fold
- Average Induction, Z25821 H.sapiens gene for mitochondrial dodecenoyl-CoA delta-isomerase [1, 2]: 1.1 fold
- Average Induction, Z48054 H.sapiens mRNA for peroxisomal targeting signal 1 (SKL type) receptor [1, 2]: 2.0 fold
- Average Induction, L13740 Human TR3 orphan receptor mRNA ([1]; HUVEC-C, 90 min, genes represented in FIG. 2 A-C, first probe set): 4.8 fold
- Average Induction, L13740 Human TR3 orphan receptor mRNA ([1]; HUVEC-C, 90 min, genes represented in FIG. 2 A-C, second probe set): 4.7 fold
- Average Induction, A1186701 qe82d12.x1 Homo sapiens cDNA [1, 3]: 1.9 fold
- Average Induction, A1953789 wx69d10.x1 Homo sapiens cDNA [1, 3]: 1.3 fold
- Average Induction, AF024710 Homo sapiens vascular endothelial growth factor (VEGF) [1, 3]: 1.4 fold
- Average Induction, AL035297 H.sapiens gene from PAC 747L4 [1, 3]: 1.7 fold
- Average Induction, M22299 Human T-plastin polypeptide mRNA [1, 3]: 1.6 fold
- Average Induction, U35735 Human RACH1 (RACH1) mRNA [1, 3]: 1.8 fold
- Average Induction, U87460 Human putative endothelin receptor type B-like protein mRNA [1, 3]: 1.4 fold
- Average Induction, A1038821 ox96d03.x1 Homo sapiens cDNA [1, 4]: 1.2 fold
- Average Induction, AC004475 Homo sapiens chromosome 19, cosmid F23858 [1, 4]: 1.2 fold
- Average Induction, AL049354 Homo sapiens mRNA; cDNA DKFZp566E183 [1, 4]: 1.1 fold
- Average Induction, L38696 Homo sapiens autoantigen p542 mRNA [1, 4]: 1.0 fold
- Average Induction, U27655 Human RGP3 mRNA [1, 4]: 1.2 fold
- Average Induction, U53831 Homo sapiens interferon regulatory factor 7B [1, 4]: 1.1 fold
- Average Induction, U58334 Human Bcl2, p53 binding protein Bbp/53BP2 (BBP/53BP2) mRNA [1, 4]: 1.1 fold
- Average Induction, U65093 Human msg1-related gene 1 (mrg1) mRNA [1, 4]: 1.3 fold
- Average Induction, W26851 17b12 Homo sapiens cDNA [1, 4]: 1.2 fold
- Average Induction, Y13115 Homo sapiens mRNA for serine/threonine protein kinase SAK [1, 4]: 1.2 fold
- Average Induction, Z25821 H.sapiens gene for mitochondrial dodecenoyl-CoA delta-isomerase [1, 4]: 1.1 fold
- Average Induction, AB028069 Homo sapiens mRNA for activator of S phase Kinase [1, 5]: 2.0 fold
- Average Induction, D38537 Human mRNA for protoporphyrinogen oxidase [1, 5]: 1.3 fold
- Average Induction, M83667 Human NF-IL6-beta protein [1, 5]: 1.4 fold
- Average Induction, U78082 Human RNA polymerase transcriptional regulation mediator (h-MED6) mRNA [1, 5]: 1.9 fold
- Average Induction, U85267 Homo sapiens down syndrome candidate region 1 (DSCR1) gene [1, 5]: 1.6 fold
- Induction of the MCP-1 transcript (microarray, text) ([1]; endothelial cells, 90 minutes): only induced by the PAR1 agonist
- MCP-1 induction, time course (primary HUVEC): similarly induced
